Experimental data published in patent publication US12534444B2, “Treatment of cancer/inhibition of metastasis” (Celex Oncology Innovations Limited, priority 2010, dated 2026).

What was measured:
Mat-LyLu cells [1] = assay: Invasion assay (Matrigel Transwell); format: cell-based, rat
Source text: This assay is an extension of the transverse migration assay described above. To “invade”, the cells need both (i) to move as in the transverse migration assay and (ii) secrete a proteolytic enzyme to digest their surroundings. The ability of cells to invade neighbouring tissues by enzyme secretion was therefore assessed by using a layer of Matrigel™ (BD Biosciences) spread across the porous membrane of a Transwell® insert.
FIG. 7 is a schematic side sectional view of an invasion chamber 701 having a Transwell® insert 702 separating the chamber into upper 703 and lower 704 sections. The insert 702 has a migration filter membrane 705 in its base with 8 μm pores 706 extending therethrough. A layer 707 of Matrigel™ is shown coating the filter membrane 705.
Cells 708 were plated at a density of 2×10^4/ml onto the Matrigel™ layer 707 in 24-well plates (Becton-Dickinson) according to the manufacturers' instructions. 50 μl Matrigel™ was seeded at a 1:7 dilution (10 mg/ml stock) onto the inserts and left overnight. Prior to seeding with the cells the Matrigel™ was rehydrated using medium with no additions. This medium was removed prior to seeding the cells.
Cells were plated in a 1-5% FBS chemotactic gradient overnight (12 hours). The nutrient concentration in the medium 709 in the upper section 703 of the chamber was less than the concentration of nutrient in the medium 710 in the lower section 704 to induced movement of the cells through the Matrigel™ layer 707 and through the pores 706 to the underside of the filter membrane 705. At the end of each assay, non-invaded/non-migrated cells were removed from the upper surface of the insert 702 with two different swabs.
The number of cells invading to the underside of the insert 702 was determined using crystal violet staining. Invaded cells were fixed for 15 minutes with ice-cold methanol. Then 0.5% crystal violet (in 25% methanol) was added for 15 minutes. The inserts were swabbed again and then washed in water and allowed to dry. Cells were then counted using twelve separate fields of view per insert (×200 magnification). If the difference in the average number of cells invading the two control inserts was more than 40%, the experiment was rejected.
(§1) With the exception of single cell adhesion tests, which are discussed in the following paragraph, experiments were carried out under either; • (i) normal normoxic conditions ([…], 5% carbon dioxide), or • (ii) following 24 hours hypoxic pre-treatment (2% O2, 5% CO2, 93% N2) continued during the assays.

MDA-MB-231 cells = assay: Transverse migration assay (Transwell); format: cell-based, human
Method: This assay was used to represent the ability of cells to migrate as they intra/extravasate. […] The insert 602 has a migration filter membrane 605 in its base with 8 μm pores 606 extending therethrough.
Cells 607 were plated at a density of 2×10^4/ml on the filter membrane 605 and placed under a growth medium 608 containing 1% foetal bovine serum (FBS). A chemotactic gradient was created across the filter membrane 605 by placing growth medium 609 containing 10% FBS in the lower section 604 of the chamber.
Cells were allowed to migrate across the filter membrane 605 over a period of 24 hours, cells migrating and adhering to the underside of the filter membrane 605.
At the end of each assay, non-migrated cells were removed from the upper surface of the insert 602 with two different swabs
The number of cells migrating to the underside of the insert 602 was determined using crystal violet staining. Migrated cells were fixed for 15 minutes with ice-cold methanol. Then 0.5% crystal violet (in 25% methanol) was added for 15 minutes. The inserts were swabbed again and then washed in water and allowed to dry. Cells were then counted using twelve separate fields of view per insert (×200 magnification).
as §1

Mat-LyLu cells [2] = assay: Cell viability assay (trypan blue); format: cell-based, rat
Method: Cells were seeded at a density of 5×10^4 cells/ml in 35 mm Falcon tissue culture dishes. After treatment with a given drug, the medium was removed and replaced with 800 μl of growth medium and 200 μl 0.4% trypan blue (Sigma, Dorset, UK) and incubated for 10 minutes in the incubator. The trypan blue was removed and the cells were washed once with 3 ml growth medium. For each treatment, cells from 30 random fields of view were counted under 100× magnification. The number of dead cells, stained blue, was counted in each field of view. The data were expressed as percentages of living cells out of the total number of cells in given fields of view. The percentages were averaged and differences between control and treatment were compared from at least three independent experiments.
as §1

[3] = Hypoxia, 1 μM, listed as RILUZOLE
[4] = Normoxia, 1 μM, listed as RILUZOLE

Compound: COc1ccccc1OCC(O)CN1CCN(CC(=O)Nc2c(C)cccc2C)CC1 (stereo not drawn) [ranolazine]
- INVASIVENESS (no pretreatment) (Mat-LyLu cells [1]; Hypoxia, 20 μM): reduced the migration of the cells in a statistically significant way
- INVASIVENESS (no pretreatment) (Mat-LyLu cells [1]; Hypoxia, 20 μM, listed as RANOLAZINE): decreased
- INVASIVENESS (no pretreatment) (Mat-LyLu cells [1]; Hypoxia, 50 μM): reduced the migration of the cells in a statistically significant way
- INVASIVENESS (no pretreatment) (Mat-LyLu cells [1]; Hypoxia, 50 μM, listed as RANOLAZINE): decreased
- INVASIVENESS (no pretreatment) (Mat-LyLu cells [1]; Hypoxia, 300 μM): reduced the migration of the cells in a statistically significant way
- INVASIVENESS (no pretreatment) (Mat-LyLu cells [1]; Hypoxia, 300 μM, listed as RANOLAZINE): decreased
- INVASIVENESS (no pretreatment) (Mat-LyLu cells [1]; Normoxia, 20 μM): reduced the migration of the cells in a statistically significant way
- INVASIVENESS (no pretreatment) (Mat-LyLu cells [1]; Normoxia, 20 μM, listed as RANOLAZINE): decreased
- INVASIVENESS (no pretreatment) (Mat-LyLu cells [1]; Normoxia, 50 μM): reduced the migration of the cells in a statistically significant way
- INVASIVENESS (no pretreatment) (Mat-LyLu cells [1]; Normoxia, 50 μM, listed as RANOLAZINE): decreased
- INVASIVENESS (no pretreatment) (Mat-LyLu cells [1]; Normoxia, 300 μM): reduced the migration of the cells in a statistically significant way
- INVASIVENESS (no pretreatment) (Mat-LyLu cells [1]; Normoxia, 300 μM, listed as RANOLAZINE): decreased
- potency on invasiveness compared with positive control TTX (Mat-LyLu cells [1]; higher concentrations tested, TTX 1 μM): more potent than the toxin (TTX)
- TRANSVERSE MIGRATION (MDA-MB-231 cells; Hypoxia, 1 μM): reduced the transverse migration of the cells in a statistically significant way
- TRANSVERSE MIGRATION (MDA-MB-231 cells; Hypoxia, 1 μM, listed as RANOLAZINE): decreased
- TRANSVERSE MIGRATION (MDA-MB-231 cells; Hypoxia, 10 μM): reduced the transverse migration of the cells in a statistically significant way
- TRANSVERSE MIGRATION (MDA-MB-231 cells; Hypoxia, 10 μM, listed as RANOLAZINE): decreased
- TRANSVERSE MIGRATION (MDA-MB-231 cells; Hypoxia, 100 μM): the reduction was not statistically significant
- TRANSVERSE MIGRATION (MDA-MB-231 cells; Hypoxia, 100 μM, listed as RANOLAZINE): decreased
- TRANSVERSE MIGRATION (MDA-MB-231 cells; Normoxia, 1 μM): reduced the transverse migration of the cells only slightly
- TRANSVERSE MIGRATION (MDA-MB-231 cells; Normoxia, 1 μM, listed as RANOLAZINE): increased
- TRANSVERSE MIGRATION (MDA-MB-231 cells; Normoxia, 10 μM): reduced the transverse migration of the cells only slightly
- TRANSVERSE MIGRATION (MDA-MB-231 cells; Normoxia, 10 μM, listed as RANOLAZINE): decreased
- TRANSVERSE MIGRATION (MDA-MB-231 cells; Normoxia, 100 μM): reduced the transverse migration of the cells only slightly
- TRANSVERSE MIGRATION (MDA-MB-231 cells; Normoxia, 100 μM, listed as RANOLAZINE): decreased
- CELL VIABILITY (Mat-LyLu cells [2]; Hypoxia, 20 μM, 24 hours): no effect
- CELL VIABILITY (Mat-LyLu cells [2]; Hypoxia, 50 μM, 24 hours): no effect
- CELL VIABILITY (Mat-LyLu cells [2]; Hypoxia, 300 μM, 24 hours): no effect
- CELL VIABILITY (Mat-LyLu cells [2]; Normoxia, 20 μM, 24 hours): no effect
- CELL VIABILITY (Mat-LyLu cells [2]; Normoxia, 50 μM, 24 hours): no effect
- CELL VIABILITY (Mat-LyLu cells [2]; Normoxia, 300 μM, 24 hours): no effect

Compound: Nc1nc2ccc(OC(F)(F)F)cc2s1 [riluzole]
- INVASIVENESS (no pretreatment) (Mat-LyLu cells [1]; [3]): decreased
- INVASIVENESS (no pretreatment) (Mat-LyLu cells [1]; Hypoxia, 1 μM, listed as Riluzole): significantly inhibited invasiveness
- INVASIVENESS (no pretreatment) (Mat-LyLu cells [1]; Hypoxia, 2.5 μM): decreased
- INVASIVENESS (no pretreatment) (Mat-LyLu cells [1]; Hypoxia, 5 μM): decreased
- INVASIVENESS (no pretreatment) (Mat-LyLu cells [1]; [4]): decreased
- INVASIVENESS (no pretreatment) (Mat-LyLu cells [1]; Normoxia, 1 μM, listed as Riluzole): significantly inhibited invasiveness
- INVASIVENESS (no pretreatment) (Mat-LyLu cells [1]; Normoxia, 2.5 μM): decreased
- INVASIVENESS (no pretreatment) (Mat-LyLu cells [1]; Normoxia, 5 μM): decreased
- TRANSVERSE MIGRATION (MDA-MB-231 cells; Hypoxia, 1 μM): reduced the transverse migration in a statistically significant way
- TRANSVERSE MIGRATION (MDA-MB-231 cells; [3]): decreased
- TRANSVERSE MIGRATION (MDA-MB-231 cells; Hypoxia, 10 μM): reduced the transverse migration in a statistically significant way
- TRANSVERSE MIGRATION (MDA-MB-231 cells; Hypoxia, 10 μM, listed as RILUZOLE): decreased
- TRANSVERSE MIGRATION (MDA-MB-231 cells; Hypoxia, 100 μM): reduced the transverse migration in a statistically significant way
- TRANSVERSE MIGRATION (MDA-MB-231 cells; Hypoxia, 100 μM, listed as RILUZOLE): decreased
- TRANSVERSE MIGRATION (MDA-MB-231 cells; Normoxia, 1 μM): reduced the transverse migration of the cells in a statistically significant way
- TRANSVERSE MIGRATION (MDA-MB-231 cells; [4]): decreased
- TRANSVERSE MIGRATION (MDA-MB-231 cells; Normoxia, 10 μM): no effect
- TRANSVERSE MIGRATION (MDA-MB-231 cells; Normoxia, 100 μM): reduced the transverse migration of the cells in a statistically significant way
- TRANSVERSE MIGRATION (MDA-MB-231 cells; Normoxia, 100 μM, listed as RILUZOLE): decreased
- CELL VIABILITY (Mat-LyLu cells [2]; Hypoxia, 1 μM): no effect
- CELL VIABILITY (Mat-LyLu cells [2]; Hypoxia, 10 μM, 24 h): no effect
- CELL VIABILITY (Mat-LyLu cells [2]; Hypoxia, 10 μM, 24 h, listed as RILUZOLE): cell death
- CELL VIABILITY (Mat-LyLu cells [2]; Hypoxia, 30 μM, 24 h): no effect
- CELL VIABILITY (Mat-LyLu cells [2]; Hypoxia, 30 μM, 24 h, listed as RILUZOLE): cell death
- CELL VIABILITY (Mat-LyLu cells [2]; Hypoxia, 100 μM, 24 h): no effect
- CELL VIABILITY (Mat-LyLu cells [2]; Hypoxia, 100 μM, 24 h, listed as RILUZOLE): cell death
- CELL VIABILITY (Mat-LyLu cells [2]; Normoxia, 10 μM, 24 h): no effect
- CELL VIABILITY (Mat-LyLu cells [2]; Normoxia, 30 μM, 24 h): no effect
- CELL VIABILITY (Mat-LyLu cells [2]; Normoxia, 100 μM, 24 h): no effect
